Like-named read-outs stand apart in the source and are kept apart here. Each block holds one compound with its values, some of them ahead of it.
Columns and labels:
MV4-11 cells = assay: Cell proliferation assay MV4;11 (CellTiter-Glo, 72 hours); assay type: cell-based; details: Homo sapiens; MV4;11 leukemia cell line, 72 hours; read-out: MV4; 11 IC50
Protocol: Compounds were evaluated for its capacity to inhibit the proliferation of the MLLr leukemia cell line MV4-11 that harbors an MLL1-AF4 fusion protein. MV4-11 cells were cultured for 72 hours with limiting dilutions of compounds and viability was measured using CellTiter-Glo.
Compounds were dissolved to obtain as 10 mM solution in DMSO. The stock was diluted 1:5 to the top concentration of 2 mM in 100% DMSO. For IC50 determination, serial 1:3.16 dilutions were prepared in 100% DMSO by diluting 20 μL into 43.5 μL of DMSO for 8 concentrations. Each prepared DMSO solution were further diluted 1:500 in the cell culture media to obtain the 2× dosing solutions. The final concentrations of tested compounds in the cell culture media ranged from 0.632 nM to 2000 nM.
MV4-11 cells were cultured in IMDM with 10% FBS and 1× Penicillin-Streptomycin at 5% CO2 and 37° C. A cell suspension was prepared containing 15,000 cells/ml in the culture medium and 100 μL of this suspension was added per well to a 96-well cell culture plate. Then, 100 μL of 2× dosing media containing test compounds were added bringing the total volume to 200 μL. These cells were cultured for 72 hours at 37° C. and 5% CO2 in a humidified incubator.
After 72 hours, the cultured cells were mixed and 100p L was transferred to a 96-well black plate. Cell Titer Glo (100 μl) was then added to this plate. The plate was mixed with shaking for 15 mins at RT, the luminescence was then measured using Tecan Spark 20M spectrophotometer. Cell Viability (%) was determined by RLU of test/RLU average vehicle control*100 and % max inhibition was determined by 100−(% cell viability remaining at the top concentration of compound).

Menin-MLL = Menin-MLL (Homo sapiens (Human), UniProt O00255); assay: Determination of binding constants (Ki) to Menin-MLL (HTRF)
hERG = hERG (Homo sapiens (Human), UniProt Q12809); assay: Patch clamp assay (hERG tail currents, whole-cell); assay type: cell-based; details: hERG transfected HEK 293 cells; for hERG % Remaining 30 μM: 30 μM compound
[1] = HTRF, 0.25 nM H-FL-Menin, 3.2 nM FITC-MLL-4-43, 24 hr incubation, read-out: Menin-MLL Ki HTRF Assay: Ki

Sequence of Menin-MLL (O00255 whole entry): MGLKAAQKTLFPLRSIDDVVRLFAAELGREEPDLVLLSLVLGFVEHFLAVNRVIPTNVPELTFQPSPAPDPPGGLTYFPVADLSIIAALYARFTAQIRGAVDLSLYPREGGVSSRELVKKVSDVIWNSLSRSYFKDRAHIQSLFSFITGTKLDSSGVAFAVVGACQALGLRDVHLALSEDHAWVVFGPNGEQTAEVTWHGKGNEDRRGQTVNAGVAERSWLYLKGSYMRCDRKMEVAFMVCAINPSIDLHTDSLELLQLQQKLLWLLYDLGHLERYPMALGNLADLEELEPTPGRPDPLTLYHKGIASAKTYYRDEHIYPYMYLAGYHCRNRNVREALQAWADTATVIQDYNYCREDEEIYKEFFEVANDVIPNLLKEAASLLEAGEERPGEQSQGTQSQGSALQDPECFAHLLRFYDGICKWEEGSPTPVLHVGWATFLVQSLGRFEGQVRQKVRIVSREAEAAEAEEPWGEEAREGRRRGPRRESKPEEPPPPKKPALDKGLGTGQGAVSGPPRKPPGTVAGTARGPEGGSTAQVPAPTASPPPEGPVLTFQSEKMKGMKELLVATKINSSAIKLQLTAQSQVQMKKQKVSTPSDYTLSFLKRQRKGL
Sequence of hERG (Q12809 whole entry): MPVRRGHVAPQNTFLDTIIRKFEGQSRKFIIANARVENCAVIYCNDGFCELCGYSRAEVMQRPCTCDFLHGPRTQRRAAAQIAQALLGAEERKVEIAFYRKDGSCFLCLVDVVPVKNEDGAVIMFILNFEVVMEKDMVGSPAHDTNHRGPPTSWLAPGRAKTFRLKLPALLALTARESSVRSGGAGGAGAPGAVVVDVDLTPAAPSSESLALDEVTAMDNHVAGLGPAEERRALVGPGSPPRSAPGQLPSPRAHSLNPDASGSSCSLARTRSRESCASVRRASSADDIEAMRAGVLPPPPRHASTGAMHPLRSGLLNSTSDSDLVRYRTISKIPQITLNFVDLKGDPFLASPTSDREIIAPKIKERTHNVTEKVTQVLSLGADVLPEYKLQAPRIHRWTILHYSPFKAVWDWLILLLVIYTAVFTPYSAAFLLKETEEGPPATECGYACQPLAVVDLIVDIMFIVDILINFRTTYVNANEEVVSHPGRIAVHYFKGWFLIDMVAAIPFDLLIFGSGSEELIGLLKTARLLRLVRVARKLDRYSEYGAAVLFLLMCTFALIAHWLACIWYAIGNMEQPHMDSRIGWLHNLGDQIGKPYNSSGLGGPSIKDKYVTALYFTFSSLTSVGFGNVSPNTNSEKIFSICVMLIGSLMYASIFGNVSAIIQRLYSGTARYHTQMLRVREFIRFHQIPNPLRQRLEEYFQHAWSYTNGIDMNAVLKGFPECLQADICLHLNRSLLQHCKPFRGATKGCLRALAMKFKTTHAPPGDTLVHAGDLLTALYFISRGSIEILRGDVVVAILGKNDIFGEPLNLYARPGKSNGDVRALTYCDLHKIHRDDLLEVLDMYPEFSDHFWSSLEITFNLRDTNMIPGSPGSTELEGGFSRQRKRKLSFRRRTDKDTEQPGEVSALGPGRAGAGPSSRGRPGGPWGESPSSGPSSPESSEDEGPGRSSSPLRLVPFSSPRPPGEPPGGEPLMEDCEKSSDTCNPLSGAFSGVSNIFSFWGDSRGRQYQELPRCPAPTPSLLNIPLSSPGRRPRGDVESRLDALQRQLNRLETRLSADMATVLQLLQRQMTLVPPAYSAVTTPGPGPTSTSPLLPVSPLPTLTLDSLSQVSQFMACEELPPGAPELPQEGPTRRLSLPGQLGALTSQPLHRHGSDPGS

Compound: CNS(=O)(=O)N[C@H]1CC[C@H](CN2CCC3(CC2)CN(c2ncncc2Oc2ccc(F)cc2C(=O)N(C(C)C)C2CC2)C3)OC1 (stereo in doubt) [Example 146, N-Cyclopropyl-5-fluoro-N-isopropyl-2-((4-(7-(((2R,5S)-5-((N-methylsulfamoyl)amino)tetrahydro-2H-pyran-2-yl)methyl)-2,7-diazaspiro[3.5]nonan-2-yl)pyrimidin-5-yl)oxy)benzamide]
IC50 (MV4-11 cells): < 100 nM

IC50 (MV4-11 cells): < 100 nM
Compound: CCNS(=O)(=O)N[C@H]1CC[C@H](CN2CCC3(CC2)CN(c2ncnnc2Oc2ccc(F)cc2C(=O)N(CC(F)(F)F)C(C)C)C3)OC1 (stereo in doubt) [Example 193, 2-((5-(7-(((2R,5S)-5-((N-Ethylsulfamoyl)amino)tetrahydro-2H-pyran-2-yl)methyl)-2,7-diazaspiro[3.5]nonan-2-yl)-1,2,4-triazin-6-yl)oxy)-5-fluoro-N-isopropyl-N-(2,2,2-trifluoroethyl)benzamide]

Compound: CC(C)N(CC(F)(F)F)C(=O)c1cc(F)ccc1Oc1nncnc1N1CC2(CCN(C[C@H]3CC[C@H](NS(=O)(=O)N4CCC4)CO3)CC2)C1 (stereo in doubt) [Example 194, 2-((5-(7-(((2R,5S)-5-(Azetidine-1-sulfonamido)tetrahydro-2H-pyran-2-yl)methyl)-2,7-diazaspiro[3.5]nonan-2-yl)-1,2,4-triazin-6-yl)oxy)-5-fluoro-N-isopropyl-N-(2,2,2-trifluoroethyl)benzamide]
IC50 (MV4-11 cells): < 100 nM

Compound: CC(C)N(CC(F)F)C(=O)c1cc(F)ccc1Oc1cncnc1N1CC2(CCN(C[C@@H]3CC[C@@H](NS(=O)(=O)NCC(F)F)CO3)CC2)C1 [Compound 235, N-(2,2-Difluoroethyl)-2-((4-(7-(((2S,5R)-5-((N-(2,2-difluoroethyl)sulfamoyl)amino)tetrahydro-2H-pyran-2-yl)methyl)-2,7-diazaspiro[3.5]nonan-2-yl)pyrimidin-5-yl)oxy)-5-fluoro-N-isopropylbenzamide]
Ki (Menin-MLL): < 1 nM
hERG % Remaining 30 μM (hERG): +++ (“+++” means ≥66%)

Compound: CC(C)N(CC(F)F)C(=O)c1cc(F)ccc1Oc1cncnc1N1CC2(CCN(C[C@@H]3CC[C@@H](NS(=O)(=O)N(C)CCO)CO3)CC2)C1 [Compound 239, N-(2,2-difluoroethyl)-5-fluoro-2-((4-(7-(((2S,5R)-5-((N-(2-hydroxyethyl)-N-methylsulfamoyl)amino)tetrahydro-2H-pyran-2-yl)methyl)-2,7-diazaspiro[3.5]nonan-2-yl)pyrimidin-5-yl)oxy)-N-isopropylbenzamide]
Ki (Menin-MLL; [1]): < 1 nM
hERG % Remaining 30 μM (hERG): +++ (“+++” means ≥66%)

Compound: CC(C)N(CC(F)F)C(=O)c1cc(F)ccc1Oc1cncnc1N1CC2(CCN(C[C@@H]3CC[C@@H](NS(N)(=O)=O)CO3)CC2)C1 [Compound 240, N-(2,2-Difluoroethyl)-5-fluoro-N-isopropyl-2-((4-(7-(((2S,5R)-5-(sulfamoylamino)tetrahydro-2H-pyran-2-yl)methyl)-2,7-diazaspiro[3.5]nonan-2-yl)pyrimidin-5-yl)oxy)benzamide]
Ki (Menin-MLL; [1]): < 1 nM
hERG % Remaining 30 μM (hERG): +++ (“+++” means ≥66%)
IC50 (hERG): ≥ 50 µM

Compound: CC(C)N(CC(F)F)C(=O)c1cc(F)ccc1Oc1cncnc1N1CC2(CCN(C[C@@H]3CC[C@@H](NS(=O)(=O)c4nn(C)cc4F)CO3)CC2)C1 [Compound 241, N-(2,2-Difluoroethyl)-5-fluoro-2-((4-(7-(((2S,5R)-5-((4-fluoro-1-methyl-1H-pyrazole)-3-sulfonamido)tetrahydro-2H-pyran-2-yl)methyl)-2,7-diazaspiro[3.5]nonan-2-yl)pyrimidin-5-yl)oxy)-N-isopropylbenzamide]
Ki (Menin-MLL; [1]): < 1 nM
hERG % Remaining 30 μM (hERG): ++ (“++” means ≥33% and <66%)

Compound: CC(C)N(C(=O)c1cc(F)ccc1Oc1cncnc1N1CC2(CCN(C[C@@H]3CC[C@@H](NS(=O)(=O)N4CCC4)CO3)CC2)C1)C1COC1 [Compound 248, 2-((4-(7-(((2S,5R)-5-(Azetidine-1-sulfonamido)tetrahydro-2H-pyran-2-yl)methyl)-2,7-diazaspiro[3.5]nonan-2-yl)pyrimidin-5-yl)oxy)-5-fluoro-N-isopropyl-N-(oxetan-3-yl)benzamide]
Ki (Menin-MLL; [1]): < 1 nM
hERG % Remaining 30 μM (hERG): +++ (“+++” means ≥66%)

Compound: CC(C)N(C(=O)c1cc(F)ccc1Oc1cncnc1N1CC2(CCN(C[C@@H]3CC[C@@H](NS(=O)(=O)N(C)C)CO3)CC2)C1)C1COC1 [Compound 249, 2-((4-(7-(((2S,5R)-5-((N,N-Dimethylsulfamoyl)amino)tetrahydro-2H-pyran-2-yl)methyl)-2,7-diazaspiro[3.5]nonan-2-yl)pyrimidin-5-yl)oxy)-5-fluoro-N-isopropyl-N-(oxetan-3-yl)benzamide]
Ki (Menin-MLL; [1]): < 1 nM
hERG % Remaining 30 μM (hERG): +++ (“+++” means ≥66%)

Compound: CCS(=O)(=O)N[C@@H]1CC[C@@H](CN2CCC3(CC2)CN(c2ncncc2Oc2ccc(F)cc2C(=O)N(C(C)C)[C@@H]2CC[C@@H]2O)C3)OC1 [Compound 258, 2-((4-(7-(((2S,5R)-5-(Ethylsulfonamido)tetrahydro-2H-pyran-2-yl)methyl)-2,7-diazaspiro[3.5]nonan-2-yl)pyrimidin-5-yl)oxy)-5-fluoro-N-((1R,2S)-2-hydroxycyclobutyl)-N-isopropylbenzamide]
EC50 (Menin-MLL; HTRF, 0.25 nM H-FL-Menin, 3.2 nM FITC-MLL-4-43, 24 hr incubation): < 50 nM
Ki (Menin-MLL; [1]): < 1 nM
hERG % Remaining 10 μM (hERG; 10 μM compound): +++ (“+++” means ≥66%)
hERG % Remaining 30 μM (hERG): ++ (“++” means ≥33% and <66%)

Compound: CCN(C(=O)c1cc(F)ccc1Oc1cncnc1N1CC2(CCN(C[C@@H]3CC[C@@H](NS(C)(=O)=O)CO3)CC2)C1)C(C)C [Example 1, N-Ethyl-5-fluoro-N-isopropyl-2-((4-(7-(((2S,5R)-5-(methylsulfonamido)tetrahydro-2H-pyran-2-yl)methyl)-2,7-diazaspiro[3.5]nonan-2-yl)pyrimidin-5-yl)oxy)benzamide]
IC50 (MV4-11 cells): < 100 nM

Compound: CCN(C(=O)c1cc(F)ccc1Oc1cncnc1N1CC2(CCN(C[C@@H]3CC[C@@H](NS(=O)(=O)CC)CO3)CC2)C1)C(C)C [Example 2, N-Ethyl-2-((4-(7-(((2S,5R)-5-(ethylsulfonamido)tetrahydro-2H-pyran-2-yl)methyl)-2,7-diazaspiro[3.5]nonan-2-yl)pyrimidin-5-yl)oxy)-5-fluoro-N-isopropylbenzamide]
IC50 (MV4-11 cells): < 100 nM

Compound: CCN(C(=O)c1cc(F)ccc1Oc1cncnc1N1CC2(CCN(C[C@@H]3CC[C@@H](NS(=O)(=O)C(C)C)CO3)CC2)C1)C(C)C [Example 3, N-Ethyl-5-fluoro-N-isopropyl-2-((4-(7-(((2S,5R)-5-((1-methylethyl)sulfonamido)tetrahydro-2H-pyran-2-yl)methyl)-2,7-diazaspiro[3.5]nonan-2-yl)pyrimidin-5-yl)oxy)benzamide]
IC50 (MV4-11 cells): < 100 nM

Compound: CCN(C(=O)c1cc(F)ccc1Oc1cncnc1N1CC2(CCN(C[C@@H]3CC[C@@H](NS(=O)(=O)C4CC4)CO3)CC2)C1)C(C)C [Example 4, 2-((4-(7-(((2S,5R)-5-(Cyclopropanesulfonamido)tetrahydro-2H-pyran-2-yl)methyl)-2,7-diazaspiro[3.5]nonan-2-yl)pyrimidin-5-yl)oxy)-N-ethyl-5-fluoro-N-isopropylbenzamide]
IC50 (MV4-11 cells): < 100 nM

Compound: CCN(C(=O)c1cc(F)ccc1Oc1cncnc1N1CC2(CCN(C[C@@H]3CC[C@@H](NS(=O)(=O)C4COC4)CO3)CC2)C1)C(C)C [Example 5, N-Ethyl-5-fluoro-N-isopropyl-2-((4-(7-(((2S,5R)-5-(oxetane-3-sulfonamido)tetrahydro-2H-pyran-2-yl)methyl)-2,7-diazaspiro[3.5]nonan-2-yl)pyrimidin-5-yl)oxy)benzamide]
IC50 (MV4-11 cells): < 100 nM
